Data taken from patent US9017689B2, “Peptides for vaccine against birch allergy” (Circassia Limited, priority 2010, dated 2015).
Where two headings read alike, the source gives them in different places. Ends that are not written are not given here.

Test: Solubility screening in trehalose matrices pH 2.65 to 7.03;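 further: test items are peptides, each checked for solubility in every trehalose matrix, the matrices made up in distilled deionised water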
Format: physicochemical
Conditions: for solubility: read-out: Solubility [mg per ml]
[1] = 2 mM HCl and 260 mM trehalose dihydrate, pH 2.65
[2] = 10 mM potassium dihydrogen phosphate and 260 mM trehalose dihydrate, pH 6.03
[3] = 10 mM potassium dihydrogen phosphate and 260 mM trehalose dihydrate, pH 7.03
[4] = 10 mM sodium citrate and 260 mM trehalose dihydrate, pH 3.01
[5] = 10 mM sodium citrate and 260 mM trehalose dihydrate, pH 3.99
[6] = 10 mM sodium citrate and 260 mM trehalose dihydrate, pH 5.02
[7] = 10 mM sodium citrate and 260 mM trehalose dihydrate, pH 6.01
[8] = aqueous buffer, 10 mM potassium dihydrogen phosphate and 260 mM trehalose dihydrate, pH 6.03
[9] = aqueous buffer, 10 mM potassium dihydrogen phosphate and 260 mM trehalose dihydrate, pH 7.03
[10] = aqueous buffer, 10 mM sodium citrate and 260 mM trehalose dihydrate, pH 3.99
[11] = aqueous buffer, 10 mM sodium citrate and 260 mM trehalose dihydrate, pH 5.02
[12] = aqueous buffer, 10 mM sodium citrate and 260 mM trehalose dihydrate, pH 6.01
[13] = water, 2 mM HCl and 260 mM trehalose dihydrate, pH 2.65

Row | Sequence | Comments (solubility on preparation) [1] | Solubility [mg per ml 'as is'] [1] | Solubility [μmol per ml] [1] | Solubility after 24 Hours [1] | Commute (solubility on preparation) [2] | Solubility [mg per ml 'as is'] [2] | Solubility [μmol per ml] [2] | Solubility after 24 Hours [2] | Comments (solubility on preparation) [3] | Solubility [mg per ml 'as is'] [3] | Solubility [μmol per ml] [3] | Solubility after 24 Hours [3] | Comments (solubility on preparation) [4] | Solubility [mg per ml 'as is'] [4] | Solubility [μmol per ml] [4] | Solubility after 24 Hours [4] | Comments (solubility on preparation) [5] | Solubility [mg per ml 'as is'] [5] | Solubility [μmol per ml] [5] | Solubility after 24 Hours [5] | also measured
1 | PGTIKKISFPEGFPFKYV [Bir04] | Completely dissolved | 20.50 mg per ml ‘as is’ | 8.639 μmol per ml | Completely dissolved | Completely dissolved | 9.86 mg per ml ‘as is’ | 4.155 μmol per ml | Completely dissolved | Completely dissolved | 21.50 mg per ml ‘as is’ | 9.061 μmol per ml | Completely dissolved | Completely dissolved | 22.58 mg per ml ‘as is’ | 9.516 μmol per ml | Completely dissolved | Completely dissolved | 20.36 mg per ml ‘as is’ | 8.580 μmol per ml | Completely dissolved | Comments (solubility on preparation) [6]: Completely dissolved; Solubility [mg per ml 'as is'] [6]: 21.52 mg per ml ‘as is’; Solubility [μmol per ml] [6]: 9.069 μmol per ml; Solubility after 24 Hours [6]: Completely dissolved; Comments (solubility on preparation) [7]: Completely dissolved.; Solubility [mg per ml 'as is'] [7]: 10.11 mg per ml ‘as is’; Solubility [μmol per ml] [7]: 4.261 μmol per ml; Solubility after 24 Hours [7]: Completely dissolved.; solubility [8]: ≥ 8.54 mg/mL; solubility [9]: ≥ 18.6 mg/mL; solubility (aqueous buffer, 10 mM sodium citrate and 260 mM trehalose dihydrate, pH 3.01): ≥ 19.6 mg/mL; solubility [10]: ≥ 17.6 mg/mL; solubility [11]: ≥ 18.6 mg/mL; solubility [12]: ≥ 8.76 mg/mL; solubility [13]: ≥ 17.8 mg/mL
2 | PAARMFKAFILEGDKLVPK [Bir02J] | Completely dissolved | 23.60 mg per ml ‘as is’ | 9.069 μmol per ml | Completely dissolved | Completely dissolved | 11.12 mg per ml ‘as is’ | 4.273 μmol per ml | Completely dissolved | Completely dissolved | 12.31 mg per ml ‘as is’ | 4.730 μmol per ml | Completely dissolved | Completely dissolved in | 0.38 mg per ml ‘as is’ | 0.147 μmol per ml | Precipitated out, | Completely dissolved in | 0.39 mg per ml ‘as is’ | 0.148 μmol per ml | Precipitated out, | Solubility [mg per ml] [4]: 0.314 mg per ml; Comments (solubility on preparation) [6]: Completely dissolved in; Solubility [mg per ml 'as is'] [6]: 0.34 mg per ml ‘as is’; Solubility [μmol per ml] [6]: 0.132 μmol per ml; Solubility after 24 Hours [6]: Precipitated out,; Comments (solubility on preparation) [7]: Completely dissolved in; Solubility [mg per ml 'as is'] [7]: 0.39 mg per ml ‘as is’; Solubility [μmol per ml] [7]: 0.150 μmol per ml; Solubility after 24 Hours [7]: Precipitated out,; solubility [8]: ≥ 9.11 mg/mL; solubility [9]: ≥ 10.1 mg/mL; solubility [10]: ≥ 0.315 mg/mL; solubility [11]: ≥ 0.281 mg/mL; solubility [12]: ≥ 0.32 mg/mL; solubility [13]: ≥ 19.3 mg/mL
